Source: patent US11180449B2, “Crystal form of key intermediate of bruton tyrosine kinase (BTK) inhibitor and preparation method thereof” (SHANGHAI ZAIQI BIO-TECH CO., LTD., priority 2019, dated 2021)
Entries after “also recorded” stand apart in the source; their conditions may differ.

Experiments:
[1] = Stability comparison between crystal forms I and II (influence factors: light, temperature, humidity); type: physicochemical; conditions: for change of purity of the compound: 10 days under light, 30° C. and 40° C., 75% RH and 90% RH
[2] = Special stability of crystal form II (grinding, heating, tableting); type: physicochemical
Description: The crystal form II of a compound of formula (I) prepared according to the method of Example 2 was subjected to grinding, heating and tableting.

Row | purity of the compound, 30° C. ([1]; day 0) [%] | purity of the compound, 30° C. ([1]; day 5) [%] | purity of the compound, 30° C. ([1]; day 10) [%] | purity of the compound, 30° C. ([1]; day 30) [%] | purity of the compound, 40° C. ([1]; day 0) [%] | purity of the compound, 40° C. ([1]; day 5) [%] | purity of the compound, 40° C. ([1]; day 10) [%] | purity of the compound, 40° C. ([1]; day 30) [%] | change of purity of the compound [1] | purity of the compound, Illumination ([1]; open condition, day 0) [%] | purity of the compound, Illumination ([1]; open condition, day 5) [%] | purity of the compound, Illumination ([1]; open condition, day 10) [%] | purity of the compound, Illumination ([1]; open condition, day 30) [%] | purity of the compound, RH75% ([1]; day 0) [%] | purity of the compound, RH75% ([1]; day 5) [%] | purity of the compound, RH75% ([1]; day 10) [%] | purity of the compound, RH75% ([1]; day 30) [%] | purity of the compound, RH90% ([1]; day 0) [%] | purity of the compound, RH90% ([1]; day 5) [%] | purity of the compound, RH90% ([1]; day 10) [%] | SMILES | further results
1 | 99.31 | 99.23 | 99.10 | 98.87 | 99.31 | 99.18 | 99.05 | 95.01 | not obviously changed | 99.31 | 97.75 | 95.53 | 85.76 | 99.31 | 99.18 | 98.97 | 97.41 | 99.31 | 98.91 | 98.51 | CCOC(=O)c1c(C#N)c(-c2ccc(Oc3c(F)cccc3F)cc2)cn1[C@@H]1CCN(C(=O)OC(C)(C)C)C1 [Crystal form I] | purity of the compound, RH90% ([1]; day 30): 95.91%; crystal form re-tested after the influence factor experiment [1]: not changed
2 | 99.73 | 99.72 | 99.72 | 99.67 | 99.73 | 99.68 | 99.65 | 99.60 | not obviously changed | 99.73 | 99.56 | 99.43 | 99.21 | 99.73 | 99.72 | 99.68 | 99.64 | 99.73 | 99.71 | 99.61 | CCOC(=O)c1c(C#N)c(-c2ccc(Oc3c(F)cccc3F)cc2)cn1[C@@H]1CCN(C(=O)OC(C)(C)C)C1 [Crystal form II] | purity of the compound, RH90% ([1]; day 30): 99.53%; crystal form re-tested after the influence factor experiment [1]: not changed; stability compared with crystal form I (amorphous sample) ([1]; open condition, light, high temperature and high humidity): significantly better; XRD detection (crystal form after treatment) ([2]; Grinding for 10 min in a mortar under nitrogen protection): Crystal; XRD detection (crystal form after treatment) ([2]; Tableting): Crystal; stability of the crystal form under mechanical treatment ([2]; grinding, heating and tableting (pressure)): good stability; also recorded: stable
